Test results from PMC6601062, “Identification of duck liver-expressed antimicrobial peptide 2 and characterization of its bactericidal activity” (Asian-Australasian Journal of Animal Sciences, 2018).
Bridge positions count the residues as written; N and C are the ends. Peptide text beside a SMILES is read from it.

Columns and labels:
[1] = test system: S. aureus; test: Fluorescence microscopic analysis, LIVE/DEAD BacLight staining; type: cell-based, Staphylococcus aureus; conditions: 200 μg/mL peptide, 3 h at 37°C, SYTO9 / propidium iodide
Description: (§1) E. coli, S. aureus, and L. monocytogenes (5.0×10^5 CFU/mL) in PBS were incubated with a 200 μg/mL (final concentration) of the disulfide-LEAP-2 peptide for 3 h at 37°C. After incubation, the cells were washed with PBS and stained with LIVE/DEAD BacLight Bacterial Viability Kits (Invitrogen, USA) according to the manufacturer’s instructions. In brief, the bacteria were incubated for 15 min with SYTO9 green fluorescent […] and with propidium iodide in a dark room. The cells were then mounted onto glass slides and examined using EVOS FLoid Cell Imaging Station (Invitrogen, USA).

[2] = test system: L. monocytogenes; test: as above; type: cell-based, Listeria monocytogenes; conditions: 200 μg/mL peptide, 3 h at 37°C, SYTO9 / propidium iodide
Description: as §1

[3] = test system: E. coli ATCC 43888; test: Antimicrobial activity assay (colony counting); type: cell-based, Escherichia coli; conditions: 50 μg/mL peptide, 3 h at 37°C, PBS pH 7.4, colony counting
Description: (§2) The bacterial species used in this experiment included two gram-positive bacteria strains, Listeria monocytogenes (L. monocytogenes) ATCC 19115 and Staphylococcus aureus (S. aureus) ATCC 27664, and four gram-negative bacteria strains, E. coli ATCC 43888, Salmonella enterica serovar Enteritidis YHS 383, Salmonella enterica serovar Choleraesuis YHS 386, and Salmonella enterica serovar Typhimurium ATCC 43174.
Bacteria were cultured overnight at 37°C in LB broth for E. coli, and in tryptic soy broth for the other bacteria, and suspended to 5.0×10^5 colony-forming units (CFU)/mL in PBS (pH 7.4). To measure antimicrobial activity, 25 μL of bacteria were added into 96-well microtiter plates and diluted duck LEAP-2 peptides were dispensed to final concentrations of 50, 100, 150, and 200 μg/mL. After 3 h of incubation at 37°C, surviving bacteria were counted using a standard colony counting assay according to the following formula: cell survival % = (treatment CFU/negative control CFU)×100. To determine the killing kinetics, L. monocytogenes and S. aureus were cultured overnight in tryptic soy broth and suspended to 5.0×10^5 CFU/mL in PBS (pH 7.4). Bacteria were added into 96-well microtiter plates with a final peptide concentration of 200 μg/mL. […] Surviving bacteria were counted using a standard colony counting assay.

[4] = test system: Staphylococcus aureus (S. aureus) ATCC 27664; test: Antimicrobial activity assay (colony counting); type: cell-based; conditions: 50 μg/mL peptide, 3 h at 37°C, 5.0×10^5 CFU/mL in PBS pH 7.4, colony counting
Description: as §2
(§3) Bacteria were cultured overnight at 37°C in LB broth for E. coli, and in tryptic soy broth for the other bacteria, and suspended to 5.0×10^5 colony-forming units (CFU)/mL in PBS (pH 7.4). To measure antimicrobial activity, 25 μL of bacteria were added into 96-well microtiter plates and diluted duck LEAP-2 peptides were dispensed to final concentrations of 50, 100, 150, and 200 μg/mL. After 3 h of incubation at 37°C, surviving bacteria were counted using a standard colony counting assay according to the following formula: cell survival % = (treatment CFU/negative control CFU)×100. To determine the killing kinetics, L. monocytogenes and S. aureus were cultured overnight in tryptic soy broth and suspended to 5.0×10^5 CFU/mL in PBS (pH 7.4). Bacteria were added into 96-well microtiter plates with a final peptide concentration of 200 μg/mL. The bacteria and peptide mixture was incubated for 0, 30, 60, 90, and 180 min at 37°C. Surviving bacteria were counted using a standard colony counting assay.

[5] = test system: Listeria monocytogenes (L. monocytogenes) ATCC 19115; test: Antimicrobial activity assay (colony counting); type: cell-based; conditions: 50 μg/mL peptide, 3 h at 37°C, 5.0×10^5 CFU/mL in PBS pH 7.4, colony counting
Description: as §2, §3

[6] = test system: Salmonella enterica serovar Typhimurium ATCC 43174; test: Antimicrobial activity assay (colony counting); type: cell-based; conditions: 200 μg/mL peptide, 3 h at 37°C, PBS pH 7.4, colony counting
Description: as §2, §3

[7] = test system: Staphylococcus aureus; test: Killing kinetics (colony counting); type: cell-based; conditions: 200 μg/mL peptide, 37°C, PBS pH 7.4; sampled at 0, 30, 60, 90, 180 min
Description: as §3

[8] = test system: Listeria monocytogenes ATCC 19115; test: Killing kinetics (colony counting); type: cell-based; conditions: 200 μg/mL peptide, 37°C, PBS pH 7.4; sampled at 0, 30, 60, 90, 180 min
Description: as §3

[9] = test system: E. coli; test: Fluorescence microscopic analysis, LIVE/DEAD BacLight staining; type: cell-based, Escherichia coli; conditions: 200 μg/mL peptide, 3 h at 37°C, SYTO9 / propidium iodide
Description: as §1

[10] = test system: Salmonella enterica serovar Enteritidis YHS 383; test: Antimicrobial activity assay (colony counting); type: cell-based; conditions: 3 h at 37°C, PBS pH 7.4, colony counting; concentration not given
Description: as §2, §3

SMILES	live/dead staining of S. aureus (red fluorescence = dead) [1]	live/dead staining of L. monocytogenes (red fluorescence = dead) [2]	E. coli killed [3]	killing of S. aureus [4]	killing of L. monocytogenes [5]	killing effect / inhibition of cell proliferation, S. Typhimurium [6] [%]	killing of S. aureus over time [7]	time in which all L. monocytogenes were killed [8] [min]	live/dead staining of E. coli (red fluorescence = dead) [9]	S. Enteritidis inhibited [10]
CC[C@H](C)[C@@H]1NC(=O)[C@@H]2CSSC[C@@H](C(=O)N[C@@H](Cc3ccccc3)C(=O)N[C@@H](CC(C)C)C(=O)N[C@@H](CCCNC(=N)N)C(=O)N[C@@H](CO)C(=O)N[C@@H](C)C(=O)N[C@@H](CO)C(=O)N[C@@H](CCC(=O)O)C(=O)O)NC(=O)[C@H](CCCNC(=N)N)NC(=O)[C@H](CC(N)=O)NC(=O)[C@H](CCCCN)NC(=O)[C@H](CCCNC(=N)N)NC(=O)[C@H](CSSC[C@H](NC(=O)[C@H](CO)NC(=O)[C@H](C)NC(=O)CNC(=O)[C@@H](NC(=O)[C@@H]3CCCN3C(=O)[C@H](CCCNC(=N)N)NC(=O)[C@H](CC(C)C)NC(=O)[C@H](CO)NC(=O)[C@@H](NC(=O)CNC(=O)[C@H](CCCNC(=N)N)NC(=O)[C@H](Cc3c[nH]c4ccccc34)NC(=O)[C@H](Cc3ccccc3)NC(=O)[C@@H]3CCCN3C(=O)[C@@H](NC(=O)[C@@H](N)CCSC)[C@@H](C)O)C(C)C)[C@@H](C)CC)C(=O)N[C@@H](CCCNC(=N)N)C(=O)N[C@@H](CC(=O)O)C(=O)N[C@@H](CC(N)=O)C(=O)N[C@@H](CO)C(=O)N[C@@H](CCC(=O)O)C(=O)N2)NC(=O)[C@H](CC(C)C)NC(=O)[C@H](CCSC)NC(=O)[C@H]([C@@H](C)O)NC1=O [disulfide LEAP-2] (H-MTPFWRGVSLRPIGASCRDNSECITMLCRKNRCFLRSASE-OH; disulfide 17-28, 23-33; N-terminus and C-terminus assumed)	most of the cells were dead	most of the cells were dead	more than 90%	killed most	killed most	90	killed S. aureus gradually over time	≤ 30	most of the cells were dead	
CC[C@H](C)[C@H](NC(=O)[C@H](CS)NC(=O)[C@H](CCC(=O)O)NC(=O)[C@H](CO)NC(=O)[C@H](CC(N)=O)NC(=O)[C@H](CC(=O)O)NC(=O)[C@H](CCCNC(=N)N)NC(=O)[C@H](CS)NC(=O)[C@H](CO)NC(=O)[C@H](C)NC(=O)CNC(=O)[C@@H](NC(=O)[C@@H]1CCCN1C(=O)[C@H](CCCNC(=N)N)NC(=O)[C@H](CC(C)C)NC(=O)[C@H](CO)NC(=O)[C@@H](NC(=O)CNC(=O)[C@H](CCCNC(=N)N)NC(=O)[C@H](Cc1c[nH]c2ccccc12)NC(=O)[C@H](Cc1ccccc1)NC(=O)[C@@H]1CCCN1C(=O)[C@@H](NC(=O)[C@@H](N)CCSC)[C@@H](C)O)C(C)C)[C@@H](C)CC)C(=O)N[C@H](C(=O)N[C@@H](CCSC)C(=O)N[C@@H](CC(C)C)C(=O)N[C@@H](CS)C(=O)N[C@@H](CCCNC(=N)N)C(=O)N[C@@H](CCCCN)C(=O)N[C@@H](CC(N)=O)C(=O)N[C@@H](CCCNC(=N)N)C(=O)N[C@@H](CS)C(=O)N[C@@H](Cc1ccccc1)C(=O)N[C@@H](CC(C)C)C(=O)N[C@@H](CCCNC(=N)N)C(=O)N[C@@H](CO)C(=O)N[C@@H](C)C(=O)N[C@@H](CO)C(=O)N[C@@H](CCC(=O)O)C(=O)O)[C@@H](C)O [linear LEAP-2] (H-MTPFWRGVSLRPIGASCRDNSECITMLCRKNRCFLRSASE-OH; N-terminus and C-terminus assumed)							killed S. aureus gradually over time	≤ 30		not inhibited
